Measured values: US20210277102A1, “COMPOSITIONS AND METHODS FOR TREATING A TUMOR SUPPRESSOR DEFICIENT CANCER” (BETH ISRAEL DEACONESS MEDICAL CENTER, INC., priority 2016, published 2021)
“Also recorded” adds a separate entry of the source.

Columns and labels:
[1] = system: Pten^pc−/−; Trp53^pc−/− prostate tumors; assay: In vivo drug and antibody treatment of Pten^pc−/−; Trp53^pc−/− mice (MRI, flow cytometry, histology); design: species or system mouse
Procedure: (§1) Mice were allocated at random to experimental groups and studies were performed in an unblended manner. For treatment with the CXCR2 antagonist, SB225002 (Cayman Chemical #13336) was dissolved in DMSO (10 mg/ml) and diluted in vehicle (0.9% NaCl, 0.3% Tween 80) for in vivo administration. Mice (4 months of age) were treated daily for 10 days by intraperitoneal injection (5 mg/kg) and prostate tumor tissue (anterior lobes) was subjected to Flow Cytometry and histological analysis. For MRI analysis, mice (4 months of age) were treated daily for 21 days (Pten^pc-/-; Zbtb7a^pc-/-), for 14 days (Pten^pc-/-; Trp53^pc-/-) or for 14 days (Pten^pc-/-; Pml^pc-/-) by intraperitoneal injection (5 mg/kg). For depletion of Gr-1+/CD11b+ cells, Ly6G-depletion antibody (1A8, BioXcell) and control Rat IgG2a antibody (BioXcell) were diluted in phosphate-buffered saline (PBS) for in vivo administration. Mice (4 months of age) were treated every other day for 10 days by intraperitoneal injection (200-300 μg/mouse). InVivoMAb anti-mouse Ly6G/Ly6C (Gr-1) antibody, clone RB6-8C5 (BE0075, BioXcell), and control Rat IgG2b antibody (BE0090, BioXcell) were diluted in PBS and Pten^pc-/-; Trp53^pc-/- mice were treated every other day for 14 days by intraperitoneal injection (200 μg/mouse). For neutralization of CXCL5, anti-Mouse CXCL5 antibody (Leinco Technologies) and control Rat IgG2a antibody (BioXcell) were diluted in PBS and injected every other day for 21 days by intraperitoneal injection (20 μg/mouse). Tumor volume quantification was performed by using VivoQuant and Image J software. All mouse prostate MRI imaging analysis was performed at Small Animal Imaging Core at BIDMC and acquired on an […] Model M2 1T tabletop scanner. For western blotting, cell lysates were prepared by homogenizing tumor tissue with NP40 Buffer (Boston Bioproducts) supplemented with protease (Roche) and HALT phosphatase inhibitor cocktails (Thermo Scientific) and subsequently subjected to SDS-Gel separation (Invitrogen) and western blotting. The following antibodies were used for western blotting: […] (AC-74; Sigma), CXCL5 (R & D Systems #AF433), pIRAK4 (Cell Signaling Technology #11927S), IRAK4 (Cell Signaling Technology #4363P), IκBα (Cell Signaling Technology #4812S), Zbtb7a (hamster anti-Zbtb7a clone 13E9), PTEN (Cell Signaling Technology #9559S), p53 (Cell Signaling Technology #2524S), p21 (Santa Cruz Biotechnology sc-6246) and HSP90 (BD Biosciences BDB610419). Western blots were quantified using Image J software. For immunohistochemistry, tissues and organoids were fixed in 4% paraformaldehyde and embedded in paraffin in accordance with standard procedures. Embedding and hematoxylin and eosin staining of sections were performed by the Histology Core at BIDMC and analyzed by a pathologist. […]

[2] = system: Pten^pc−/−; Zbtb7a^pc−/− prostate tumors; assay: In vivo drug and antibody treatment of Pten^pc−/−; Zbtb7a^pc−/− mice (MRI, flow cytometry, histology, western blot, qRT-PCR); design: species or system mouse
Procedure: as §1, with “pathologist. Sections were stained with anti-LY6G (BioLegend #127603), anti-CD45R (Abcam #ab64100), anti-CD3 (Abcam #ab5690), anti-beta Catenin (Abcam #32572), anti-phospho ERK (Cell Signaling Technology #4376), anti-phospho AKT Ser473 (Cell Signaling Technology #4060) and anti-Ki67 (Thermo Scientific #RM-9106) according to manufacturer's recommendations. For Flow Cytometry, spleen and lymph node single cell suspensions were prepared by mashing the tissue in 2% FBS/PBS. Tumor and control prostate tissue (from anterior lobes) single cell suspension was prepared by mincing the tumor and digestion with Collagenase Type I (Life Technologies #17018029) in 10% DMEM (GIBCO) for 1 hr at 37° C.” for “pathologist.”

[3] = Trp53^pc−/− prostate tumors after treatment

O=C(Nc1ccc([N+](=O)[O-])cc1O)Nc1ccccc1Br [SB225002]
tumor growth (tumor volume by MRI) ([1]; Trp53^pc−/− mice, intraperitoneal injection, vs vehicle or control IgG): significantly suppressed the tumor growth; also recorded: significant inhibition of tumor growth | Treg cells (CD4+/FoxP3+) in tumor (flow cytometry) [1, 3]: less Foxp3+ cells; also recorded: less Treg cells | intra-tumoral Gr-1+/CD11b+ cells (flow cytometry) [1, 3]: decrease of Gr-1+/CD11b+ cells | tumor burden (histological analysis) ([1]; Trp53^pc−/− tumors, anterior prostate lobes): reduced tumor burden; also recorded: significantly diminished tumor involvement | tumor growth (tumor volume by MRI) ([2]; Zbtb7a^pc−/− mice, intraperitoneal injection, vs vehicle): significantly suppressed the tumor growth; also recorded: significant inhibition of tumor growth | intra-tumoral Gr-1+/CD11b+ cells (flow cytometry) ([2]; Zbtb7a^pc−/− prostate tumors after treatment): decrease of Gr-1+/CD11b+ cells | tumor burden (histological analysis) ([2]; Zbtb7a^pc−/− tumors, anterior prostate lobes): reduced tumor burden; also recorded: significantly diminished tumor involvement | IκBα protein level (western blot) ([2]; Zbtb7a^pc−/− tumors, normalized with β-actin, vs vehicle): increased IκBα protein levels | expression of CXCL5 in the prostate tumors ([2]; Zbtb7a^pc−/− tumors, vs vehicle): elevated expression of CXCL5
